What was measured:
[1] = test system: PDE4 (h); assay: Enzyme and cell-based assay, [3H]cAMP + cAMP (1 μM)
[2] = test system: male NMRI mice; assay: Spontaneous locomotor activity in mice; assay type: in vivo, mouse; conditions: 10, 30 and 100 mg/kg p.o. acute
Method: Locomotor activity was measured in male NMRI mice (18–20 g, Janvier Labs, Le Genest Saint Isle, France) placed in open-fields equipped with infrared sensors (Imetronic, Pessac, France). Two parameters were automatically computed: the global locomotor activity and the number of rearing by counting the number of times the animal cut photocells. Mice were placed in the apparatus 30 min after oral administration of S 47445 (10, 30 and 100 mg/kg) or vehicle. Spontaneous locomotor activity was recorded for 60 min divided in 6 x 10-min periods. The global locomotor activity was analysed using two way ANOVA (dose x time) followed by Dunnett’s post hoc test. Analyses were performed using SAS v9.2 software (SAS Institute, Cary, NC).

[3] = test system: Phospholipase C; assay: Enzyme and cell-based assay, [3H]PIP2 (0.3 mM)
[4] = test system: K^+ATP channel; assay: Binding assay, [3H]glibenclamide
[5] = molecular target: AMPA/Kainate chimerae GluA1(K2S1) (Homo sapiens, UniProt P42261, A392I/A426D/A443L/A444R/A447S/A473Q/A536S/C542Y/D385S/D386Q/D417E/D470A/D533N/DEL395-402/E430Y/E441D/E457R/E501K/E538D/F388G/F429L/F545L/G479R/G484H/H449I/I446L/I458L/I518Y/I548L/INS382DPASGLNM/INS391N/INS555VIA/K448T/K472G/K519R/K523G/K525N/L422F/L456I/L497Y/M421L/M517L/N383T/N425S/N427K/P469D/Q405S/Q428P/Q522N/R455E/R467Q/R485K/S453T/S460E/S511T/S524T/T408S/T471N/T494A/V389K/V404L/V440I/V450L/V482I/V488L/V544L/V552C/Y381T/Y409L/Y435F/Y452F/Y483D/Y537P); assay: Glutamate-evoked current in oocytes expressing AMPA/Kainate chimera; conditions: n = 5
[6] = test system: α2 (non-selective); assay: Binding assay, [3H]RX 821002
[7] = molecular target: T1, human AMPA receptor GluA4o/2o (Homo sapiens, UniProt P42262+P48058, A778Q/D799G/G801D/K798G/P767A/P797S/Q607R/S776N/S800G/T766N/V780L); assay: Glutamate-evoked currents, oocytes expressing recombinant human AMPA receptors; assay type: cell-based
T1 construct: host or cells: Xenopus laevis oocytes
Method: (§1) Compounds were tested by bath application.

[8] = molecular target: T2, human AMPA receptor GluA1o/2i (Homo sapiens, UniProt P42261+P42262, Q607R); assay: as above; assay type: cell-based
T2 construct: host or cells: Xenopus laevis oocytes
Method: as §1

[9] = molecular target: T3, human AMPA receptor GluA4o/2i (Homo sapiens, UniProt P42262+P48058, Q607R); assay: as above; assay type: cell-based
T3 construct: host or cells: Xenopus laevis oocytes
Method: as §1

[10] = molecular target: T4, human AMPA receptor GluA1i/2o (Homo sapiens, UniProt P42261+P42262, Q607R); assay: as above; assay type: cell-based
T4 construct: host or cells: Xenopus laevis oocytes
Method: as §1

[11] = molecular target: T5, human AMPA receptor GluA1i (GluA1 flip) (Homo sapiens, UniProt P42261); assay: as above; assay type: cell-based
T5 construct: host or cells: Xenopus laevis oocytes
Method: as §1

[12] = molecular target: T6, human AMPA receptor GluA1i/2i (Homo sapiens, UniProt P42261+P42262, Q607R); assay: as above; assay type: cell-based
T6 construct: host or cells: Xenopus laevis oocytes
Method: as §1

[13] = molecular target: T7, human AMPA receptor GluA4i/2i (Homo sapiens, UniProt P42262+P48058, Q607R); assay: as above; assay type: cell-based
T7 construct: host or cells: Xenopus laevis oocytes
Method: as §1

[14] = molecular target: T8, human AMPA receptor GluA4o (GluA4 flop) (Homo sapiens, UniProt P48058, A778Q/D799G/G801D/K798G/P767A/P797S/S776N/S800G/T766N/V780L); assay: as above; assay type: cell-based
T8 construct: host or cells: Xenopus laevis oocytes
Method: as §1

[15] = molecular target: T9, human AMPA receptor GluA4i (GluA4 flip) (Homo sapiens, UniProt P48058); assay: as above; assay type: cell-based
T9 construct: host or cells: Xenopus laevis oocytes
Method: as §1

[16] = molecular target: T10, human AMPA receptor GluA1o/2o (Homo sapiens, UniProt P42261+P42262, Q607R); assay: as above; assay type: cell-based
T10 construct: host or cells: Xenopus laevis oocytes
Method: as §1

[17] = test system: human AMPA receptor GluA1o (GluA1 flop); assay: as above; assay type: cell-based; conditions: S 47445 100 μM
Method: as §1

[18] = molecular target: T11, human AMPA receptor GluA1o (GluA1 flop) (Homo sapiens, UniProt P42261); assay: as above; assay type: cell-based
T11 construct: host or cells: Xenopus laevis oocytes
Method: as §1

[19] = molecular target: T12, human AMPA receptor GluA4i/2o (Homo sapiens, UniProt P42262+P48058, Q607R); assay: as above; assay type: cell-based
T12 construct: host or cells: Xenopus laevis oocytes
Method: as §1

[20] = test system: male adult Wistar rats; assay: Spontaneous locomotor activity in rats; assay type: in vivo, rat; conditions: 10, 30 and 100 mg/kg p.o. acute; n = 9
Method: Locomotor activity was recorded in male adult Wistar rats (180–200 g, Janvier Labs, Le Genest Saint Isle, France) placed in cages in a soundproof keeping room (open-field). A remote surveillance appliance allowed to observe and to record animal behaviour from an adjacent room. The movie camera was connected to an automatic analysis system (videotrack software, Viewpoint, Lissieu, France). The distance covered (cm) was automatically computed for each rat. Rats were orally administered 1 h before the test with S 47445 (10, 30 and 100 mg/kg) or vehicle. Locomotor activity was recorded during 30 min divided in 3 x 10-min periods. The total covered distance over 30 min was analysed using one way (dose) ANOVA, followed in case of significance of the dose effect by Dunnett’s test (versus vehicle controls). The significance threshold was set at 5%. Analyses were performed using SAS v9.2 software (SAS Institute, Cary, NC).

[21] = test system: kainate receptors; assay: Kainate-evoked currents, oocytes injected with rat cortex poly(A+) mRNA; conditions: n = 3

T4 sequence (P42261 19-906 isoform P42261-2 limits assumed, stated change not applied): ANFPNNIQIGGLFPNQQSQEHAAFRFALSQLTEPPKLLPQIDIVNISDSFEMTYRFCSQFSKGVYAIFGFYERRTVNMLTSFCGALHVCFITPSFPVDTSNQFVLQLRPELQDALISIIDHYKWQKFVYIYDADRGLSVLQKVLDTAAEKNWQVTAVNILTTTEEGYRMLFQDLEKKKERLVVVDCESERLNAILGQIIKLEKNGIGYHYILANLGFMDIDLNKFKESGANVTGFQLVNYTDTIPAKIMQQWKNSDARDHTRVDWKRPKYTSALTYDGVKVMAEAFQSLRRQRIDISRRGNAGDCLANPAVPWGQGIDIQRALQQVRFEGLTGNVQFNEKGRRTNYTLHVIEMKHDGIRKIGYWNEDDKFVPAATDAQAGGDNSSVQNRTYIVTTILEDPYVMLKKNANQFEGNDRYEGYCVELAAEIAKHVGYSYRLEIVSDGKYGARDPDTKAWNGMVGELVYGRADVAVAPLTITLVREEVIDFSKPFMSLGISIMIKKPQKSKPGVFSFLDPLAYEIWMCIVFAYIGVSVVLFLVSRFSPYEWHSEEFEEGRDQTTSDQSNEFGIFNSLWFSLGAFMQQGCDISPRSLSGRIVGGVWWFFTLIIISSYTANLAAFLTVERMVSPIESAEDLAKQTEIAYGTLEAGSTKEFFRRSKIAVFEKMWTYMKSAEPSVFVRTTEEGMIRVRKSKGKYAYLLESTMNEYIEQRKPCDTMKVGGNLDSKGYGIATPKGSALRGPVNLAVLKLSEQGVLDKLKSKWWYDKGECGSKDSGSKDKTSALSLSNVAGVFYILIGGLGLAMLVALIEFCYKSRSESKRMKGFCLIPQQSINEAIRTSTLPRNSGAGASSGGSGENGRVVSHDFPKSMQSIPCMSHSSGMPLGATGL
T4 sequence (P42262 22-883 Q607R limits assumed): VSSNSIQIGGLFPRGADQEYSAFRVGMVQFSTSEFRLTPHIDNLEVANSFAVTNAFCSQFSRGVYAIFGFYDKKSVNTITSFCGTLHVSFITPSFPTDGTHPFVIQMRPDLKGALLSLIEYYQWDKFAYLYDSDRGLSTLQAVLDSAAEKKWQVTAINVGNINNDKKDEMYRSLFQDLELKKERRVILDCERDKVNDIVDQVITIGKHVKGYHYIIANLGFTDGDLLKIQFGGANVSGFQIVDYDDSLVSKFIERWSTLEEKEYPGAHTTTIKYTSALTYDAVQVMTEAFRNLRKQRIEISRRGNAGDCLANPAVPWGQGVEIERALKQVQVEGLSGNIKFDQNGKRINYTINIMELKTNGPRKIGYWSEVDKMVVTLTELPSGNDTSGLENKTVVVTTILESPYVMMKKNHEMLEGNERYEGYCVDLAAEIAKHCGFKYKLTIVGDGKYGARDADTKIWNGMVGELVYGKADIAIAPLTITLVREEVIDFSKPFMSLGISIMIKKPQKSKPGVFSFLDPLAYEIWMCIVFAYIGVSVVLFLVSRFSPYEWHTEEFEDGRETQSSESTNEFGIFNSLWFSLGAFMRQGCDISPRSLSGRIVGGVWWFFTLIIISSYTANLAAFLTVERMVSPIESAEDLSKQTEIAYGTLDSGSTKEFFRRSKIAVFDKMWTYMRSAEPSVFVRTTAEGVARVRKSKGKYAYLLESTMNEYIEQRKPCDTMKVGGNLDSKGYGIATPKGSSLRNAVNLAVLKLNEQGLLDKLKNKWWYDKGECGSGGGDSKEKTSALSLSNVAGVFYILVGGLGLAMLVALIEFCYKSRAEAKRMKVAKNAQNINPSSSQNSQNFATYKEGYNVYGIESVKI
T6 sequence (P42261 19-906 isoform P42261-2 limits assumed, stated change not applied): as the sequence (P42261 19-906 isoform P42261-2 limits assumed, stated change not applied) above
T6 sequence (P42262 22-883 isoform P42262-2 Q607R limits assumed): as the sequence (P42262 22-883 Q607R limits assumed) above, with N744T, A745P, N754S, L758V, S775A, G776K, G777D, G778S, D779G counted along it
T5 sequence (P42261 19-906 isoform P42261-2 limits assumed): as the sequence (P42261 19-906 isoform P42261-2 limits assumed, stated change not applied) above

O=C1c2cc3nnn(CCc4cccc(F)c4)c(=O)c3cc2OCN1C1CC1 [S 47445, 8-cyclopropyl-3-[2-(3-fluorophenyl)ethyl]-7,8-dihydro-3H-[1,3]oxazino[6,5-g][1,2,3]benzotriazine-4,9-dione]
% Inhibition of control specific binding ([1]; S 47445 1.0E-05 M): -12%
% Inhibition of control specific binding ([1]; S 47445 1.0E-07 M): 20%
Global spontaneous locomotor activity [2]: did not significantly modify
Number of rearing [2]: did not influence
% Inhibition of control specific binding ([3]; S 47445 1.0E-05 M): 7%
% Inhibition of control specific binding ([3]; S 47445 1.0E-07 M): -5%
% Inhibition of control specific binding ([4]; S 47445 1.0E-05 M): 0%
% Inhibition of control specific binding ([4]; S 47445 1.0E-07 M): 6%
Potentiating effect on glutamate-evoked current [5]: lost
% Inhibition of control specific binding ([6]; S 47445 1.0E-05 M): -5%
% Inhibition of control specific binding ([6]; S 47445 1.0E-07 M): -2%
EC50 [7]: 2.9 µM
EC50 [8]: 5.4 µM
EC50 [9]: 3.8 µM
EC50 [10]: 4.3 µM
EC50 [11]: 5.4 µM
EC50 [12]: 2.6 µM
EC50 [13]: 5.4 µM
EC50 [14]: 0.7 µM
EC50 [15]: 3 µM
EC50 [16]: 3.9 µM
Amplitude of potentiation, flop variants compared to flip variants at GluA1 [17]: about 9 fold
EC50 [18]: 2.5 µM
EC50 [19]: 3.3 µM
Total distance of spontaneous locomotor activity [20]: did not significantly modify
Effect at kainate-evoked currents [21]: absence of effect
